Data: patent US20230183243A1, “HETEROARYL DERIVATIVES AND PHARMACEUTICAL COMPOSITION COMPRISING SAME AS ACTIVE INGREDIENT” (VORONOI INC., priority 2019, published 2023)

Key:
TTK = target: T1, TTK (Homo sapiens, UniProt P33981); test: TTK enzyme activity, ADP-Glo kinase assay; format: biochemical; parameters: purchased SignalChem T20-10G; conditions: purified human TTK, ATP 10 μM, 25° C., 2 hours
T1 sequence (P33981 1-857): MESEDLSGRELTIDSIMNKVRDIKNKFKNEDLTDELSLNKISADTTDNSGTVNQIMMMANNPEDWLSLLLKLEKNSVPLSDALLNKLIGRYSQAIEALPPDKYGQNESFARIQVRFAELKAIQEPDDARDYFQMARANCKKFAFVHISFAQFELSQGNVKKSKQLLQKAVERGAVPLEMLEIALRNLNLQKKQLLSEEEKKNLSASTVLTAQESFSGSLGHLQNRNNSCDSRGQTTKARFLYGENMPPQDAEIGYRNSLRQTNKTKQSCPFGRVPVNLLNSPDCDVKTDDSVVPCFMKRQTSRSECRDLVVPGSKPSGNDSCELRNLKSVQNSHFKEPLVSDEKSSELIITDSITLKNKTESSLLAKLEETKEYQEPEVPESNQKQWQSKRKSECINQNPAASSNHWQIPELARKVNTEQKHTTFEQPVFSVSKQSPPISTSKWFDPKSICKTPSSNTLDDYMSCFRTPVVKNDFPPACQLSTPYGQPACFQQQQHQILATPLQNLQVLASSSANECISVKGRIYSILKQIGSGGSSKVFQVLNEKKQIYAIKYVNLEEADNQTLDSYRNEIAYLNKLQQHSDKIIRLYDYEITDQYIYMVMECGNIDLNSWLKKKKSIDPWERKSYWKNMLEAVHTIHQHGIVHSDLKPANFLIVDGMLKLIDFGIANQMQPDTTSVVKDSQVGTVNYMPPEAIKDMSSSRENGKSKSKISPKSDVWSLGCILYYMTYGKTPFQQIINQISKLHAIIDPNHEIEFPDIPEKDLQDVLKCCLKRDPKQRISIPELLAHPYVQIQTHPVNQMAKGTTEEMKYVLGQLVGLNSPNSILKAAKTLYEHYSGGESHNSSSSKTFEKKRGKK
Protocol: To evaluate an inhibitory activity of the compound according to the present invention against TTK (MPS1), an experiment was performed as follows.
Each of the Example compounds was reacted with a purified human TTK (SignalChem #T20-10G) enzyme to evaluate an ability to inhibit an enzyme using a method as described below. A composition of 40 mM Tris-HCl (pH 7.4), 20 mM MgCl2, 0.5 mg/mL BSA, and 50 μM DTT was used as a reaction buffer, and all reactions of test substances were performed in the reaction buffer. […] In the test, purified ATP (10 μM) and an enzyme substrate (0.2 μg) were reacted with a human TTK (25 ng) enzyme at 25° C. for 2 hours, and the enzyme activity was determined using an in vitro ADP-Glo™ kinase assay (Promega). […] The degree of inhibition of the enzyme activity according to the treatment concentration of each of the compounds was calculated based on the fluorescence of the enzyme activity of the solvent control which was not treated with the compound.

MDA-MB-231 cells = test: Inhibition of proliferation of triple-negative breast cancer cells, CellTiter-Glo; format: cell-based; conditions: Homo sapiens, 120 h; MDA-MB-231, cultured for 5 days
Protocol: Specifically, the following test was performed in order to evaluate the inhibitory activity of the compound according to the present invention against the cell proliferation in triple-negative breast cancer cells (TNBCs).
Cells were seeded in 180 μL of a culture broth at a density of 2,000 to 3,000 cells/well in a white clear bottom 96-well plate (Corning) according to the growth ability of each cell, and then cultured for 24 hours under conditions of 5% CO2 and 37° C. Thereafter, the compound was prepared by diluting a 10 mM stock solution three-fold with 100% DMSO at a total of 12 concentrations so that a peak concentration of the compound was in a range of 10 mM to 0.05 μM, and the diluted compound was then diluted in each cell culture medium so that a final concentration of the compound was in a range of 100 μM to 0.5 nM. 20 μL of a diluted solution diluted with a medium was added to the cell solution in which cells were seeded in the 96-well plate on the previous day so that a final concentration of the diluted solution was in a range of 10 μM to 0.05 nM. Each of the cells was cultured for 5 days. To check cell viability, a mixture provided in a CellTiter-Glo® Luminescent Cell Viability Assay Kit (Promega) was added to each of the cultured cell media, and cultured for another 10 minutes under a condition of 37° C. Then, a degree of luminescence (fluorescence) was measured. A degree of inhibition of the cell growth according to the treatment concentration of each of the compounds was calculated based on the fluorescence of the solvent control cells which were not treated with the compound.

| SMILES | IC50 (TTK) [nM] | GI50 (MDA-MB-231 cells) [nM] |
| --- | --- | --- |
| Cn1nccc1-c1ccc(Nc2nc(NC3CCCCC3)c3c(C#N)c[nH]c3n2)c2c1OCCO2 [Example 39, 4-(cyclohexylamino)-2-((8-(1-methyl-1H-pyrazol-5-yl)-2,3-dihydrobenzo[b][1,4]dioxin-5-yl)amino)-7H-pyrrolo[2,3-d] pyrimidine-5-carbonitrile] | < 50 | < 100 |
| COc1cc(-c2ccnn2C)c(C)cc1Nc1nc(NC2CCCC2)c2c(C#N)c[nH]c2n1 [Example 35, 4-(cyclopentylamino)-2-((2-methoxy-5-methyl-4-(1-methyl-1H-pyrazol-5-yl)phenyl)amino)-7H-pyrrolo[2,3-d] pyrimidine-5-carbonitrile] | 200 to 1000 | 100 to 1000 |
| COc1cc(N2CCCC2=O)ccc1Nc1nc(NC2COC2)c2c(C#N)c[nH]c2n1 [Example 73, 2-((2-methoxy-4-(2-oxopyrrolidin-1-yl)phenyl)amino)-4-(oxetan-3-ylamino)-7H-pyrrolo[2,3-d] pyrimidine-5-carbonitrile] | < 50 | < 100 |
| CC[C@H](C)Nc1nc(Nc2ccc(-c3ccnn3C)cc2OC)nc2[nH]cc(C#N)c12 [Example 1, (S)-4-(sec-butylamino)-2-((2-methoxy-4-(1-methyl-1H-pyrazol-5-yl)phenyl)amino)-7H-pyrrolo[2,3-d] pyrimidine-5-carbonitrile 2,2,2-trifluoroacetate] | < 50 | < 100 |
| CC(C)Nc1nc(Nc2ccc(-c3ccnn3C)c3c2OCCO3)nc2[nH]cc(C#N)c12 [Example 76, 4-(isopropylamino)-2-((8-(1-methyl-1H-pyrazol-5-yl)-2,3-dihydrobenzo[b][1,4]dioxin-5-yl)amino)-7H-pyrrolo[2,3-d] pyrimidine-5-carbonitrile] | < 50 | < 100 |
| COc1cc(-c2ccc(F)nc2)ccc1Nc1nc(NC2CCCCC2)c2c(C#N)c[nH]c2n1 [Example 24, 4-(cyclohexylamino)-2-((4-(6-fluoropyridin-3-yl)-2-methoxyphenyl)amino)-7H-pyrrolo[2,3-d] pyrimidine-5-carbonitrile] | < 50 | < 100 |
| COc1cc(-c2ccc(CN3CCN(C(C)=O)CC3)cc2)ccc1Nc1nc(NC2CCCC2)c2c(C#N)c[nH]c2n1 [Example 41, 2-((4′-((4-acetylpiperazin-1-yl)methyl)-3-methoxy-[1,1′-biphenyl]-4-yl)amino)-4-(cyclopentylamino)-7H-pyrrolo[2,3-d] pyrimidine-5-carbonitrile] | 50 to 200 | 100 to 1000 |
| COc1cc(-c2nnc3n2CCC3)ccc1Nc1nc(NC2CCCCC2)c2c(C#N)c[nH]c2n1 [Example 31, 4-(cyclohexylamino)-2-((4-(6,7-dihydro-5H-pyrrolo[2,1-c] [1,2,4]triazol-3-yl)-2-methoxyphenyl)amino)-7H-pyrrolo[2,3-d] pyrimidine-5-carbonitrile] | < 50 | < 100 |
| CCOc1cc(-c2nncn2C)ccc1Nc1nc(C2CC2)c2c(C#N)c[nH]c2n1 [Example 46, 4-cyclopropyl-2-((2-ethoxy-4-(4-methyl-4H-1,2,4-triazol-3-yl)phenyl)amino)-7H-pyrrolo[2,3-d] pyrimidine-5-carbonitrile] | 200 to 1000 | > 1000 |
| COc1cc(N2CCCC2=O)ccc1Nc1nc(NCC(C)C)c2c(C#N)c[nH]c2n1 [Example 66, 4-(isobutylamino)-2-((2-methoxy-4-(2-oxopyrrolidin-1-yl)phenyl)amino)-7H-pyrrolo[2,3-d] pyrimidine-5-carbonitrile] | < 50 | < 100 |
| COc1cc(-c2cnn(C)c2)ccc1Nc1nc(NC2CCCC2)c2c(C#N)c[nH]c2n1 [Example 43, 4-(cyclopentylamino)-2-((2-methoxy-4-(1-methyl-1H-pyrazol-4-yl)phenyl)amino)-7H-pyrrolo[2,3-d] pyrimidine-5-carbonitrile] | < 50 | < 100 |
| COc1cc(-c2ccnn2C)ccc1Nc1nc(NCC(C)(C)C)c2c(C#N)c[nH]c2n1 [Example 12, 2-((2-methoxy-4-(1-methyl-1H-pyrazol-5-yl)phenyl)amino)-4-(neopentylamino)-7H-pyrrolo[2,3-d] pyrimidine-5-carbonitrile] | < 50 | > 1000 |
| COc1cc(-c2cn(C)nn2)ccc1Nc1nc(NC2CCCCC2)c2c(C#N)c[nH]c2n1 [Example 25, 4-(cyclohexylamino)-2-((2-methoxy-4-(1-methyl-1H-1,2,3-triazol-4-yl)phenyl)amino)-7H-pyrrolo[2,3-d] pyrimidine-5-carbonitrile] | 200 to 1000 | < 100 |
| COc1cc(-c2nccs2)ccc1Nc1nc(NC2CCCC2)c2c(C#N)c[nH]c2n1 [Example 17, 4-(cyclopentylamino)-2-((2-methoxy-4-(thiazol-2-yl)phenyl)amino)-7H-pyrrolo[2,3-d] pyrimidine-5-carbonitrile] | 200 to 1000 | < 100 |
| COc1cc(-c2ncn(C)n2)ccc1Nc1nc(NC2CCCCC2)c2c(C#N)c[nH]c2n1 [Example 27, 4-(cyclohexylamino)-2-((2-methoxy-4-(1-methyl-1H-1,2,4-triazol-3-yl)phenyl)amino)-7H-pyrrolo[2,3-d] pyrimidine-5-carbonitrile] | < 50 | < 100 |
| COc1cc(-c2ncnn2C)ccc1Nc1nc(NC2CCCCC2)c2c(C#N)c[nH]c2n1 [Example 26, 4-(cyclohexylamino)-2-((2-methoxy-4-(l-methyl-1H-1,2,4-triazol-5-yl)phenyl)amino)-7H-pyrrolo[2,3-d] pyrimidine-5-carbonitrile] | 50 to 200 | < 100 |
| COc1cc(N2CCOC2=O)ccc1Nc1nc(NC2CCCCC2)c2c(C#N)c[nH]c2n1 [Example 3, 4-(cyclohexylamino)-2-((2-methoxy-4-(2-oxooxazolidin-3-yl)phenyl)amino)-7H-pyrrolo[2,3-d] pyrimidine-5-carbonitrile] | < 50 | 100 to 1000 |
